We go through 6 compounds from publication PMC6232179 (Scientific Reports, 2018).

Read-outs that look alike come from different tables or passages of the source.

Assay [1] has as its system IRE1α. Kind of assay: IRE1α XBP1 splicing luciferase reporter, HEK293 cells. It counts as cell-based, human. The settings on record: for COX-2-dependent stimulation of XBP1 mRNA splicing (IRE1α activity): HEK293, COX-2 siRNA vs scrambled, 24 hours, thapsigargin 0.5 µM, tunicamycin 5 µg/ml, DTT 1 mM, n = 16, Fig. 1D. The method, then: HEK293 cells (human embryonic kidney cells; https://web.expasy.org/cellosaurus/CVCL_0045) were maintained under standard tissue culture conditions, including 5% CO2 with high humidity. Tissue culture media included 10% fetal bovine serum in DMEM (Sigma). Cell transfection, analysis of cell viability and luciferase assays were carried out as described previously.
The pRL-IXFL XBP1 splicing reporter was a generous gift from Dr. R. Kaufman (Sanford Burnham Medical Discovery Institute) and contains an internal Renilla control and the nucleotide sequence encoding XBP1 followed by firefly luciferase separated by an internal ribosomal entry site (IRES) initiation region. This reporter will only generate firefly luciferase if the XBP1 sequence is spliced, bringing the firefly luciferase sequence to the correct reading frame.

Assay [2] concerns the target T1, IRE1-NLD (ER luminal domain of IRE1α) (Homo sapiens, UniProt O75460).
T1 construct: the ER luminal domain of IRE1α (IRE1-NLD); His6 (C); KDEL (ER retention signal) (C); made in house; host or cells: COS-1 cells
T1 sequence (O75460 19-443 limits assumed): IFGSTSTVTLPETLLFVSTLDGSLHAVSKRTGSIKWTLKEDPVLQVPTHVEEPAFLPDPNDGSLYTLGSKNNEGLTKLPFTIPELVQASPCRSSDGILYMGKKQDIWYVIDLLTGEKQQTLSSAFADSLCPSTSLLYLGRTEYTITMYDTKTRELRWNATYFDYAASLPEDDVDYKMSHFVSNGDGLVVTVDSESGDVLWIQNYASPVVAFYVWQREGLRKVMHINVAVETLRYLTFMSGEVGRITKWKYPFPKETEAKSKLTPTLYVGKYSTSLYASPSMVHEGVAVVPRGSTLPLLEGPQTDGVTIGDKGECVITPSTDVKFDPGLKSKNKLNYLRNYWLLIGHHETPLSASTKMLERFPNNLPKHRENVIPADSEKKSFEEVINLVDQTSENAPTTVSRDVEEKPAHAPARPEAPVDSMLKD
Put plainly: SPR, binding to immobilized IRE1-NLD. The settings on record: CM5 chip, 10 mM Hepes pH 7.4, 150 mM NaCl, 0.005% P20, 30 μl/min, triplicate, 10 µM COX-2, BiP, PDIA6 flowed. How it is done:
Briefly, a CM5 chip was activated using a 1:1 dilution of EDC:NHS as previously described. Purified protein was diluted in 10 mM NaAc, pH 5 and injected over the activated CM5 chip followed by the blocking solution of 1 M ethanolamine, pH 9. A reference lane with no ligand coupled was generated to subtract background binding. The running buffer was composed of 10 mM Hepes, pH 7.2, 150 mM NaCl, 1 mM EDTA, 0.005% P20, and 2% ethanol. […] For each experiment, the signal was corrected against the control surface response to eliminate any refractive index changes due to buffer change. The data were collected at 25 °C at a flow rate of 30 µl/min to minimize mass transfer effects. Positive (cyclophilin) and negative controls (carbonic anhydrase) were included. Kinetic analysis was performed using the BiaEvaluation software (GE Life Sciences) with a 1:1 Langmuir binding model. Association and dissociation rates and affinity (KD) were calculated for each experiment and averaged. The binding response signals in RUs were continuously recorded and presented graphically as a function of time. For SPR analysis of COX-2 interaction with IRE1-NLD, the carboxymethylated dextran (CMD) surface of a CM5 chip was activated using a 1:1 dilution of EDC:NHS as previously described. Purified IRE1-NLD was captured at a flow rate of 5 μl/min to a total of ~1500 Response Units (RU). […]
(In general: In SPR one partner is held on a chip, and binding of the other changes the refractive index at the surface.)

For assay [3], the system named is IRE1α. Put plainly: Co-immunoprecipitation of endogenous COX-2 and IRE1α, HEK293 cells. Conditions: HEK293, triplicate, Fig. 5A. Format: binding, human. How it is done: For immunoprecipitation experiments, HEK293 (endogenous IRE1α) or COS-1 cells transfected with the pED-IRE1-NLD-His6-KDEL expression vector were harvested by washing with cold Tris-buffered saline followed by scraping into cold lysis buffer (25 mM Tris-Cl, pH 8.0, 150 mM NaCl, 0.5% Nonidet P-40, and 0.5% sodium deoxycholate). The lysate was incubated on ice for 30 min followed by centrifugation and 30 min incubation at 4 °C with 60 µl of 10% slurry of Protein A/G Sepharose beads (Qiagen) to preclear the lysate. The beads were centrifuged briefly to pellet and washed with five times of cold lysis buffer while the supernatant was transferred to a new Eppendorf tube. For immunoprecipitation of IRE1α, IRE1-NLD or COX-2, 2 µl of anti-IRE1α, anti-His-tag antibodies, COX-2 antibody or an IgG control were added to the supernatant and incubated with rotation overnight at 4 °C. To pull-down the antibody, 100 µl of 10% slurry of Protein A/G Sepharose beads was added and the lysate was incubated 4 hours with rotation at 4 °C. The beads were centrifuged briefly to pellet and washed five times with 1 ml cold lysis buffer. The beads were pelleted, re-suspended in 100 µl SDS-PAGE sample buffer, with 20 µl separated on SDS-PAGE (10% acrylamide), followed by Immunoblot analysis using anti-IRE1α, anti-COX-2, or anti-His-tag antibodies. Experiments were done in triplicate.

Another assay relates to IRE1-NLD. Kind of assay: MST, COX-2 titrated to RED-labeled IRE1-NLD. The settings on record: red labelled IRE1-NLD, Suppl. Fig. S9. Format: binding. How it is done: (§1) MST was carried out using a Monolith NT.115 instrument (NanoTemper). To evaluate COX-2 binding to IRE1-NLD, an increasing concentration of purified COX-2 protein (0–10 µM) was incubated with RED-labeled purified IRE1-NLD protein (NanoTemper; as per manufacturer’s protocol). The reverse was also performed, with RED-labeled purified COX-2 incubated with an increasing concentration of purified IRE1-NLD. Positive (cyclophilin A) and negative controls (carbonic anhydrase) were included. […] Positive (cyclophilin A) and negative controls (carbonic anhydrase) were included. […] Experiments were done in triplicate and data evaluation was performed using the Monolith software (NanoTemper).

A further assay has as its system COX-2 peroxidase. Conditions: stated without reference; cited from earlier work. The text has this:
Next, we carried out XBP1 splicing reporter assays in the presence of inhibitors of COX-2 cyclooxygenase or peroxidase activity.

In the next assay the target is T2, COX-2 (Homo sapiens, UniProt P35354).
T2 construct: COX-2 cDNA was purchased from OriGene and cloned into pET-22b containing a 6His-tag; 6His; made in house; host or cells: LEMO21 E. coli
T2 sequence (P35354 18-604): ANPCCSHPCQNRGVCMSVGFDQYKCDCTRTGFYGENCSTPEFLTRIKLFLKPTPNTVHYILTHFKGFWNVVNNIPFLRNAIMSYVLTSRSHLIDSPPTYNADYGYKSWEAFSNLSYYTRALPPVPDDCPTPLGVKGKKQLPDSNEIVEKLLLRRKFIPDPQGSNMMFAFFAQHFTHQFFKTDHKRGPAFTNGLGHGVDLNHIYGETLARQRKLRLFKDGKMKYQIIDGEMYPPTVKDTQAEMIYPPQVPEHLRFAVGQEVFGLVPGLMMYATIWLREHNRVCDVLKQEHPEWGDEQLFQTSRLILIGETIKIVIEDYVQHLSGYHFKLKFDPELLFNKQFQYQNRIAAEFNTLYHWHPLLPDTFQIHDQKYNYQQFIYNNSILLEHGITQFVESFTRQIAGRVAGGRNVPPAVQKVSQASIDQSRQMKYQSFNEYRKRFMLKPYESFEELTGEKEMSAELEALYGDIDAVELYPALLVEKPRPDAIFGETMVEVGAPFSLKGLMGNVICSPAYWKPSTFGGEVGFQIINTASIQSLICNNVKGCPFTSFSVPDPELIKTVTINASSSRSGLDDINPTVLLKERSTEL
It counts as binding. The method, then:
as §1

In the case of `O[C@@H](CS)[C@@H](O)CS` [DTT], in the assay on IRE1α [1], the “COX-2-dependent stimulation of XBP1 mRNA splicing (IRE1α activity)” value (from here on “COX-2-dependent stimulation”) was “did not have any effect on COX-2-dependent stimulation of XBP1 mRNA splicing”.

Regarding `Cc1ccc(-c2cc(C(F)(F)F)nn2-c2ccc(S(N)(=O)=O)cc2)cc1` [celecoxib], the “XBP1 splicing reporter activity with COX-2 inhibitor” value with IRE1α [1] is recorded as “had no effect on the XBP1 splicing activity in the absence or presence of COX-2 silencing”.

In the case of `C/C=C(/C)C(=O)O[C@H]1C(C)=C2[C@H]([C@@H]1OC(=O)CCCCCCC)[C@@](C)(OC(C)=O)C[C@H](OC(=O)CCC)[C@@]1(O)[C@H]2OC(=O)[C@@]1(C)O` [thapsigargin], in the assay with IRE1α [1], the “COX-2-dependent stimulation” value is reported as “did not have any effect on COX-2-dependent stimulation of XBP1 mRNA splicing”.

Regarding “COX-2: purified COX-2 protein, 6His-tag, expressed in LEMO21 E. coli cells”, the Kd – broadly, the constant that tells how readily two partners part at equilibrium – in assay [2] was 880 nM. Also, the “co-immunoprecipitation with endogenous IRE1α” value in the assay with IRE1α [3] is given as “co-immunoprecipitated with endogenous IRE1α”. Further, the “binding to IRE1-NLD (MST), wild-type and H374Y” value in the assay on IRE1-NLD was “bound to IRE1-NLD”.

In the case of sodium ortho-vanadate, the COX-2 peroxidase inhibition entry with COX-2 peroxidase is recorded as “an inhibitor of COX-2 peroxidase activity”. For the same compound, on COX-2, the “effect on cyclosporine binding to COX-2” value is given as “not affected”. Besides, the “XBP1 splicing reporter activity with COX-2 inhibitor” value in the assay with IRE1α [1] (20 μM cyclosporine + inhibitor, in absence or presence of COX-2 silencing, Suppl. Fig. S5B) is listed as “significant reduction of XBP1 splicing in the presence of COX-2, but not when COX-2 was silenced”.

In the case of tunicamycin, the “COX-2-dependent stimulation” value with IRE1α [1] was “did not have any effect on COX-2-dependent stimulation of XBP1 mRNA splicing”.
